As a reminder, the IC50 is the concentration needed to halve the response being measured. A high value points to a need for much substance.

Experimental findings from BindingDB's records for doi:10.1016/s0960-894x(01)00239-6 (Dupont Pharmaceuticals, 2001) are described below.

For this assay, the target named is T1, Gag-Pol polyprotein [588-1027]/[588-1147] (Human immunodeficiency virus 1, UniProt P04585).
T1 construct: 588-1027; 588-1147
Kind of assay: HIV-1 RT Assay. The settings on record: pH 8.2; 37 °C. The source says: The IC50 of reverse transcriptase is the concentration that inhibits 50% of recombinant HIV-1 RT RNA-directed DNA polymerase activity in vitro.
Molecule `CC[C@@H]1O[C@](/C=C/C2CC2)(C(F)(F)F)c2cc(Cl)ccc2NC1=O` [(3S,5S)-7-chloro-5-[(E)-2-cyclopropylethenyl]-3-ethyl-5-(trifluoromethyl)-1,2,3,5-tetrahydro-4,1-benzoxazepin-2-one] had an IC50 of 185 nM.
`C[C@@H]1O[C@](/C=C/C2CC2)(C(F)(F)F)c2cc(Cl)ccc2NC1=O` [(3S,5S)-7-chloro-5-[(E)-2-cyclopropylethenyl]-3-methyl-5-(trifluoromethyl)-1,2,3,5-tetrahydro-4,1-benzoxazepin-2-one] registered an IC50 of 46 nM.
`C[C@@H]1O[C@](/C=C/C2CC2)(C(F)(F)F)c2cc(F)ccc2NC1=O` [(3S,5S)-5-[(E)-2-cyclopropylethenyl]-7-fluoro-3-methyl-5-(trifluoromethyl)-1,2,3,5-tetrahydro-4,1-benzoxazepin-2-one] gave an IC50 of 129 nM.
The molecule `C[C@@H]1O[C@](/C=C/C2CC2)(C(F)(F)F)c2c(ccc(F)c2F)NC1=O` [(3S,5S)-5-[(E)-2-cyclopropylethenyl]-6,7-difluoro-3-methyl-5-(trifluoromethyl)-1,2,3,5-tetrahydro-4,1-benzoxazepin-2-one] displayed an IC50 of 173 nM.
For `CC[C@@H]1O[C@](/C=C/C2CC2)(C(F)(F)F)c2cc(F)ccc2NC1=O` [(3S,5S)-5-[(E)-2-cyclopropylethenyl]-3-ethyl-7-fluoro-5-(trifluoromethyl)-1,2,3,5-tetrahydro-4,1-benzoxazepin-2-one] the value was 151 nM.
